The text below walks through data of PMC7271538 (Frontiers in Microbiology, 2020).

For orientation: inhibition means the drop in the measured response relative to a control, in per cent.

In this experiment the target is T1, prolyl oligopeptidase (rPOPLi) (Leishmania infantum, UniProt A4ICB5).
T1 construct: gene LINJ_36_7060; full-length, recombinant from E. coli (pET-15b)
Put plainly: fluorogenic assay, single concentration […]. It counts as biochemical.

Counter-ions that a name gives are not always drawn. Like-named read-outs stand apart in the source and are kept apart here.

T1 sequence (A4ICB5 entry or part of it): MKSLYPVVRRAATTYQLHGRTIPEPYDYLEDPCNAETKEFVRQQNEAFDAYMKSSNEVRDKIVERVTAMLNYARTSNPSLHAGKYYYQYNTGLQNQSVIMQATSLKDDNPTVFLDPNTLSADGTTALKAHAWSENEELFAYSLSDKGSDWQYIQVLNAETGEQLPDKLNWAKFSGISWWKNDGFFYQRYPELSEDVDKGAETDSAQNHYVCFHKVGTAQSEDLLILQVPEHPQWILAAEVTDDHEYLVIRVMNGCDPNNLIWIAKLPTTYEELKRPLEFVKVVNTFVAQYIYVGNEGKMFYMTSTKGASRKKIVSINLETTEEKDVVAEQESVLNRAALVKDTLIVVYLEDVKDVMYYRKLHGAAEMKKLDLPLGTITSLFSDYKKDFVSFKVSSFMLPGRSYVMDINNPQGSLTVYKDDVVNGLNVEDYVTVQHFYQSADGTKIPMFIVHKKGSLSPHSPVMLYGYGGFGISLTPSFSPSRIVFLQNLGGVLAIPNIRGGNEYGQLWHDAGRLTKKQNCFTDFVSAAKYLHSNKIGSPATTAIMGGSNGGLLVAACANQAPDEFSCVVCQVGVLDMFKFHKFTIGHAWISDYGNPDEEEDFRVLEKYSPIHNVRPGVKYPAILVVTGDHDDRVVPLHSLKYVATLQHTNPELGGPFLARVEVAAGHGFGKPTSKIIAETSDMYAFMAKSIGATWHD

With `Cc1ccc(S(=O)(=O)N[C@@H](Cc2ccccc2)C(=O)CCl)cc1` [TPCK, N-p-Tosyl-L-phenylalanine chloromethyl ketone], the inhibition at 100 µM (read-out: Inhibition (%)) was found to be 92.3%.

`Cc1ccc(S(=O)(=O)N[C@@H](CCCCN)C(=O)CCl)cc1` [TLCK, N-α-Tosyl-L-lysine chloromethyl ketone hydrochloride] came in with an inhibition at 100 µM of 96.8%.
